Data taken from publication PMC4322223, “Biochemical and structural characterization of a thermostable β-glucosidase from Halothermothrix orenii for galacto-oligosaccharide synthesis” (Applied Microbiology and Biotechnology, 2014).

Biological target: T1, HoBGLA (Halothermothrix orenii, UniProt B8CYA8)
T1 construct: gene Hore_15280; full length, 451 residues, GH1; pNIC28-Bsa4 N-terminal His6-TEV tag cut off with TEV protease; expressed in E. coli BL21(DE3); 53 kDa
Experiment: X-ray crystal structure, […] Å, crystal soaked with cellobionolactam
Type: binding
Conditions: pH 5.5; subsite −1, non-covalent, glucose left after cleavage of cellobionolactam

T1 sequence (B8CYA8 entry or part of it): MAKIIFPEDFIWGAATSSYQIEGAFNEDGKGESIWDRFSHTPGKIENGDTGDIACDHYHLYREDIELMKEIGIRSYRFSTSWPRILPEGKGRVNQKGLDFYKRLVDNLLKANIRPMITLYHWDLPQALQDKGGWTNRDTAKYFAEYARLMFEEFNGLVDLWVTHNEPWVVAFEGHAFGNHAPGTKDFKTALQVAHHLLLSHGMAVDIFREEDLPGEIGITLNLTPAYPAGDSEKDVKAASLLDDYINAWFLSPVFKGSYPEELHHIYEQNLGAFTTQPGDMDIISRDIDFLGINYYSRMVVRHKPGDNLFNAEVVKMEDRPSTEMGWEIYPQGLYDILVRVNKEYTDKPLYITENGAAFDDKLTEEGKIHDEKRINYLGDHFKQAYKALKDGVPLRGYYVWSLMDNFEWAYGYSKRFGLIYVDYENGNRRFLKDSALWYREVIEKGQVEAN

OC[C@H]1O[C@@H](O)[C@H](O)[C@@H](O)[C@@H]1O [D-glucose]
X-ray crystal structure, 1.80 Å, crystal soaked with cellobionolactam: The crystal structure of HoBGLA in complex with glucose, representing the post-hydrolysis state
